# Laboratory results taken from patent US20250074913A1, “PYRAZOLE DERIVATIVES AS STING AGONISTS” (Hoffmann-La Roche Inc., priority 2022, published 2025).
# Read-outs that look alike come from different tables or passages of the source.
# Columns and labels:
# human PBMC = experiment: hPBMC cytokine release assay (Luminex, IFN-β); type: cell-based; conditions: read-out: Agonist_hPBMC_IFN-β_EC50
# Description: This is the cytokines concentration detection with Luminex assay for human PBMC supernatant. Human peripheral blood mononuclear cells (PBMC) are treated by compounds with appropriate time. Multiple cytokines are released in the supernatant in response to the compound stimulation. Luminex assay can measure the cytokines concentration in supernatant and the compounds activity on human PBMC can be evaluated.
# Frozen PBMC was thawed and cultured in PRMI1640 (GIBCO 11875-093) whole medium with […] Heat inactivated-FBS (HI—FBS), 1% NEAA, […] in CO2 incubator overnight. Cells were centrifuged at 400×g for 5 minutes at 4° C. and the pellet was re-suspended with complete RPMI1640 medium to concentration of 1×10^6 cells/ml in cell culture flask T75 (Thermo Fisher Scientific). Compounds were serially diluted with DMSO and distributed to 96-well flat bottom cell plate (Corning 3599) with Echo555. 90 μL/well PBMC cells were seeded into the plates with Multidrop (Thermo Fisher Scientific). After 24 hours of incubation in CO2 incubator, cells were centrifuged at 400×g for 5 minutes at room temperature, 80 μL supernatant each well was collected for cytokines release test with luminex assay of Human custom ProcartaPlex 5-plex kit (Thermo Fisher Scientific PPX-05). 10 μL supernatant or standards were added to a mixture of color-coded beads, 5 μL Biotinylated detection antibodies specific to the analytes of interest were added and formed an antibody-antigen sandwich. 10 μL Phycoerythrin (PE)-conjugated streptavidin is added to the plate and then read signal of each well on the Luminex 200™. The raw data was analyzed by Millipore Analyst Software and cytokine concentrations were generated accordingly. The EC50 of corresponding cytokine such as interferon-β (IFN-β) was calculated by the 4-parameter sigmoidal concentration response model fitting.
# [1] = Single dose pharmacokinetics (SDPK) in female C57BL/6J mice; type: in vivo; conditions: mouse, plasma, 1 mg/kg, iv
# Description: This is the single dose pharmacokinetics (PK) study in female C57/BL6 mice. The purpose of this study was to determine the pharmacokinetics of selected compounds following a single intravenous bolus injection in female C57BL/6J mice. Briefly, 3 female C57BL/6J mice (available from Shanghai Lingchang Biotechnology Co., Ltd) were treated with a single dose of compound intravenously at 1 mg/kg (IV). Blood samples were collected at 5 min, 15 min, 30 min, 1 h, 2 h, 4 h, 7 h and 24 h post-dose. Blood samples were placed on wet ice until centrifugation to obtain plasma samples. The compound concentration in plasma samples was determined using LC-MS/MS method. The pharmacokinetic parameters were calculated by non-compartmental analysis.
# [2] = test system: interferon regulatory factor (IRF) pathway in THP1-Dual™ cells; experiment: THP1-Dual reporter gene assay (Agonist_THP1_EC50); type: cell-based; conditions: Homo sapiens, 20-24 hrs compound treatment, Lucia luciferase (IRF) readout
# How it was run: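 Human THP-1 monocytes with Lucia luciferase under ISG54 minimal promoter plus five ISREs; ~33,000 cells/well with serially diluted compound, final 1% DMSO, 20-24 h at 37 °C. Supernatant Lucia luciferase read by QUANTI-Luc Gold luminescence; viability by CCK-8, A450 after 2 h.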
# [3] = female, C57BL/6J, prior art compounds (Table 4)
# [4] = 24 hours incubation, IFN-β in supernatant
SMILES,"AUC(0-t) [1, 3] [µg·h/mL]","C0 [1, 3] [µg/mL]","clearance [1, 3] [L/h/kg]",EC50 [2] [µM],AUC(0-t) ([1]; female C57BL/6J mice) [µg·h/mL],C0 ([1]; female C57BL/6J mice) [µg/mL],clearance ([1]; female C57BL/6J mice) [L/h/kg],"EC50 (human PBMC; prior art compounds (Table 4), IFN-β) [µM]",EC50 (human PBMC; [4]) [µM]
"CCn1nc(C)c(O)c1-c1nnc(-c2nc(C(N)=O)cc3c2cnn3C)[nH]1 [AC01, reference compound]",0.102,0.997,10.2,,,,,0.028,
"Cc1cc2c(C(N)=O)nn(-c3nc(-c4c(O)c(C)nn4CCc4ccccc4)n[nH]3)c2cn1 [Example 40, 1-[3-[4-hydroxy-5-methyl-2-(2-phenylethyl)pyrazol-3-yl]-1H-1,2,4-triazol-5-yl]-5-methyl-pyrazolo[3,4-c]pyridine-3-carboxamide]",,,,0.011,0.151,1.6,6.84,,0.046
"CCCn1nc(C)c(O)c1-c1nc(-c2cc(C(N)=O)n3cc(C)ncc23)co1 [Example 94, 8-[2-(4-hydroxy-5-methyl-2-propyl-pyrazol-3-yl)oxazol-4-yl]-3-methyl-pyrrolo[1,2-a]pyrazine-6-carboxamide]",,,,0.015,,,,,0.006

# More lines, main results first:
"AUC(0-t) [1, 3] [µg·h/mL]","C0 [1, 3] [µg/mL]","clearance [1, 3] [L/h/kg]",EC50 [2] [µM],AUC(0-t) ([1]; female C57BL/6J mice) [µg·h/mL],C0 ([1]; female C57BL/6J mice) [µg/mL],clearance ([1]; female C57BL/6J mice) [L/h/kg],SMILES,"EC50 (human PBMC; prior art compounds (Table 4), IFN-β) [µM]",EC50 (human PBMC; [4]) [µM]
,,,0.162,0.122,1.72,8.22,"CCn1nc(C)c(O)c1-c1n[nH]c(-c2c(F)c(C(N)=O)n3cc(C)ncc23)n1 [Example 4, 8-[3-(2-ethyl-4-hydroxy-5-methyl-pyrazol-3-yl)-1H-1,2,4-triazol-5-yl]-7-fluoro-3-methyl-pyrrolo[1,2-a]pyrazine-6-carboxamide]",,
,,,0.019,0.597,5.5,1.8,"CCCn1nc(C)c(O)c1-c1n[nH]c(-n2nc(C(N)=O)c3cc(C)ncc32)n1 [Example 31, 1-[3-(4-hydroxy-5-methyl-2-propyl-pyrazol-3-yl)-1H-1,2,4-triazol-5-yl]-5-methyl-pyrazolo[3,4-c]pyridine-3-carboxamide]",,0.032
,,,0.005,0.15,2.2,6.66,"CCCn1nc(C)c(O)c1-c1n[nH]c(-c2c(F)c(C(N)=O)n3cc(C)ncc23)n1 [Example 79, 7-fluoro-8-[3-(4-hydroxy-5-methyl-2-propyl-pyrazol-3-yl)-1H-1,2,4-triazol-5-yl]-3-methyl-pyrrolo[1,2-a]pyrazine-6-carboxamide]",,0.022
